Measured values: patent publication US8298994B2, “Substituted 1-(diazinyl)pyrazol-4-ylacetic acids, processes for their preparation and their use as herbicides and plant growth regulators” (Bayer Cropscience AG, priority 2008, dated 2012)

How the values were obtained:
[1] = test system: harmful plants such as Alopecurus myosuroides, Echinochloa crus galli, Setaria viridis and Veronica persica; assay: Pre-emergence herbicidal effect (greenhouse pot test, visual scoring); assay type: in vivo; details: pre-emergence method, application rate of 0.32 kg of active substance per hectare, scored visually after about 3 weeks
From the text: 1. Pre-emergence Herbicidal Effect and Crop Plant Compatibility
Seeds of monocotyledonous or dicotyledonous weeds or crop plants are placed in sandy loam soil in wood-fiber pots and covered with soil. The compounds (I) according to the invention, formulated in the form of wettable powders (WP), are then applied to the surface of the soil cover in the form of an aqueous suspension or emulsion at a water application rate of 600 I/ha (converted), with addition of 0.2% wetting agent.
Following the treatment, the pots are placed in the greenhouse and kept under good growth conditions for the test plants. After about 3 weeks, the activity of the preparations is scored visually in comparison to untreated controls (herbicidal activity in percent (%): 100% activity=the plants have died, 0% activity=like control plants).

[2] = test system: harmful plants such as Avena fatua, Echinochloa crus galli, Lolium multiflorum, Setaria viridis, Veronica persica, Viola tricolor and Alopecurus myosuroides; assay: Post-emergence herbicidal effect (greenhouse pot test, visual scoring); assay type: in vivo; details: post-emergence method, application rate of 0.32 kg or less of active substance per hectare, scored visually after about 3 weeks
Method: 2. Post-emergence Herbicidal Effect and Crop Plant Compatibility
Seeds of monocotyledonous and dicotyledonous weeds and crop plants are placed in sandy loam soil in wood-fiber pots, covered with soil, and cultivated in a greenhouse under good growth conditions. 2 to 3 weeks after sowing, the test plants are treated at the one-leaf stage. The compounds (I) according to the invention, formulated as wettable powders (WP), are then sprayed onto the green parts of the plants as an aqueous suspension or emulsion at a water application rate of 600 I/ha (converted), with addition of 0.2% wetting agent. The test plants are allowed to stand in a greenhouse for about 3 weeks under optimum growth conditions, and the effect of the preparations is then scored visually by comparison with untreated controls (herbicidal activity in percent (%): 100% activity=the plants have died, 0% activity=like control plants).

Structure (SMILES): Cc1nn(-c2cncnc2)c(-c2ccc(Cl)cc2)c1CC(=O)O [Compound 1-28]
- herbicidal activity [1]: good herbicidal activity
- herbicidal activity [2]: good herbicidal activity

Structure (SMILES): Cc1nn(-c2cncnc2)c(-c2ccc(Cl)cn2)c1CC(=O)O [Compound 1-116]
- herbicidal activity [1]: good herbicidal activity
- herbicidal activity [2]: good herbicidal activity

Structure (SMILES): Cc1nn(-c2cncnc2)c(-c2ccc(Br)cn2)c1CC(=O)O [Compound 1-119]
- herbicidal activity [1]: good herbicidal activity
- herbicidal activity [2]: good herbicidal activity

Structure (SMILES): COc1ccnc(-c2c(CC(=O)O)c(C)nn2-c2cncnc2)c1 [Compound 1-154]
- herbicidal activity [1]: good herbicidal activity
- herbicidal activity [2]: good herbicidal activity

Structure (SMILES): Cc1cc(C)nc(-c2c(CC(=O)O)c(C)nn2-c2cncnc2)c1 [Compound 1-210]
- herbicidal activity [1]: good herbicidal activity
- herbicidal activity [2]: good herbicidal activity

Structure (SMILES): Cc1cnc(-c2c(CC(=O)O)c(C)nn2-c2cncnc2)cn1 [Compound 1-214]
- herbicidal activity [1]: good herbicidal activity
- herbicidal activity [2]: good herbicidal activity

Structure (SMILES): Cc1nn(-c2cncnc2)c(-c2cc3ccccc3cn2)c1CC(=O)O [Compound 1-236]
- herbicidal activity [1]: good herbicidal activity
- herbicidal activity [2]: good herbicidal activity

Structure (SMILES): COC(=O)Cc1c(C)nn(-c2cncnc2)c1-c1ccccc1 [Compound 2-2]
- herbicidal activity [1]: good herbicidal activity
- herbicidal activity [2]: good herbicidal activity

Structure (SMILES): COC(=O)Cc1c(C)nn(-c2cncnc2)c1-c1ccc(C)cc1 [Compound 2-16]
- herbicidal activity [1]: good herbicidal activity
- herbicidal activity [2]: good herbicidal activity

Structure (SMILES): COC(=O)Cc1c(C)nn(-c2cncnc2)c1-c1ccc(Cl)cc1 [Compound 2-28]
- herbicidal activity [1]: good herbicidal activity
- herbicidal activity [2]: good herbicidal activity

Structure (SMILES): COC(=O)Cc1c(C)nn(-c2cncnc2)c1-c1cc(C)cc(C)c1 [Compound 2-47]
- herbicidal activity [1]: good herbicidal activity
- herbicidal activity [2]: good herbicidal activity

Structure (SMILES): COC(=O)Cc1c(C)nn(-c2cncnc2)c1-c1cc(C)cs1 [Compound 2-64]
- herbicidal activity [1]: good herbicidal activity
- herbicidal activity [2]: good herbicidal activity

Structure (SMILES): COC(=O)Cc1c(C)nn(-c2cncnc2)c1-c1ccc(Cl)s1 [Compound 2-65]
- herbicidal activity [1]: good herbicidal activity
- herbicidal activity [2]: good herbicidal activity

Structure (SMILES): COC(=O)Cc1c(C)nn(-c2cncnc2)c1-c1ccccn1 [Compound 2-116, Methyl[3-methyl-5-(pyridin-2-yl)-1-(pyrimidin-5-yl)-1H-pyrazol-4-yl]acetate]
- herbicidal activity [1]: good herbicidal activity
- herbicidal activity [2]: good herbicidal activity

Structure (SMILES): COC(=O)Cc1c(C)nn(-c2cncnc2)c1-c1ccc(Cl)cn1 [Compound 2-117]
- herbicidal activity [1]: good herbicidal activity
- herbicidal activity [2]: good herbicidal activity

Structure (SMILES): COC(=O)Cc1c(C)nn(-c2cncnc2)c1-c1ccc(Br)cn1 [Compound 2-120]
- herbicidal activity [1]: good herbicidal activity
- herbicidal activity [2]: good herbicidal activity

Structure (SMILES): COC(=O)Cc1c(C)nn(-c2cncnc2)c1-c1ccc(C)cn1 [Compound 2-124]
- herbicidal activity [1]: good herbicidal activity
- herbicidal activity [2]: good herbicidal activity

Structure (SMILES): COC(=O)Cc1c(C)nn(-c2cncnc2)c1-c1ccc(F)cc1 [Compound 2-132]
- herbicidal activity [1]: good herbicidal activity
- herbicidal activity [2]: good herbicidal activity

Structure (SMILES): COC(=O)Cc1c(C)nn(-c2cncnc2)c1-c1ccc(Cl)c(C)c1 [Compound 2-135]
- herbicidal activity [1]: good herbicidal activity
- herbicidal activity [2]: good herbicidal activity

Structure (SMILES): COC(=O)Cc1c(C)nn(-c2cncnc2)c1-c1cc(C)ccn1 [Compound 2-148]
- herbicidal activity [1]: good herbicidal activity
- herbicidal activity [2]: good herbicidal activity

Structure (SMILES): COC(=O)Cc1c(C)nn(-c2cncnc2)c1-c1cc(OC)ccn1 [Compound 2-155]
- herbicidal activity [1]: good herbicidal activity
- herbicidal activity [2]: good herbicidal activity

Structure (SMILES): COC(=O)Cc1c(C)nn(-c2cncnc2)c1-c1cnc(C)cn1 [Compound 2-215]
- herbicidal activity [1]: good herbicidal activity
- herbicidal activity [2]: good herbicidal activity

Structure (SMILES): COC(=O)Cc1c(C)nn(-c2cncnc2)c1-c1nc2ccccc2s1 [Compound 2-217]
- herbicidal activity [1]: good herbicidal activity
- herbicidal activity [2]: good herbicidal activity

Structure (SMILES): COC(=O)Cc1c(C)nn(-c2cncnc2)c1-c1ncccn1 [Compound 2-224]
- herbicidal activity [1]: good herbicidal activity
- herbicidal activity [2]: good herbicidal activity

Structure (SMILES): COC(=O)Cc1c(C)nn(-c2cncnc2)c1-c1ccc(Br)cc1 [Compound 2-240]
- herbicidal activity [1]: good herbicidal activity
- herbicidal activity [2]: good herbicidal activity

Structure (SMILES): COC(=O)Cc1c(C)nn(-c2cncnc2)c1-c1cc2ccccc2cn1 [Compound 2-241]
- herbicidal activity [1]: good herbicidal activity
- herbicidal activity [2]: good herbicidal activity

Structure (SMILES): COC(=O)Cc1c(C)nn(-c2cncnc2)c1-c1ccc([N+](=O)[O-])cc1 [Compound 2-243]
- herbicidal activity [1]: good herbicidal activity
- herbicidal activity [2]: good herbicidal activity

Structure (SMILES): C=CCc1ccc(-c2c(CC(=O)OC)c(C)nn2-c2cncnc2)nc1 [Compound 2-249]
- herbicidal activity [1]: good herbicidal activity
- herbicidal activity [2]: good herbicidal activity

Structure (SMILES): CCOC(=O)Cc1c(C)nn(-c2cncnc2)c1-c1ccc(Cl)cc1 [Compound 3-4]
- herbicidal activity [1]: good herbicidal activity
- herbicidal activity [2]: good herbicidal activity

Structure (SMILES): CCOC(=O)Cc1c(C)nn(-c2cncnc2)c1-c1ccc(Cl)cn1 [Compound 3-25]
- herbicidal activity [1]: good herbicidal activity
- herbicidal activity [2]: good herbicidal activity

Structure (SMILES): CCOC(=O)Cc1c(C)nn(-c2cncnc2)c1-c1ccc(Br)cn1 [Compound 3-26]
- herbicidal activity [1]: good herbicidal activity
- herbicidal activity [2]: good herbicidal activity

Structure (SMILES): CCOC(=O)Cc1c(C)nn(-c2cncnc2)c1-c1cc(C)ccn1 [Compound 3-36]
- herbicidal activity [1]: good herbicidal activity

Structure (SMILES): C#CCOC(=O)Cc1c(C)nn(-c2cncnc2)c1-c1ccc(Cl)cn1 [Compound 3-112]
- herbicidal activity [1]: good herbicidal activity
- herbicidal activity [2]: good herbicidal activity

Structure (SMILES): Cc1nn(-c2cncnc2)c(-c2ccc(Cl)cc2)c1CC(=O)OCC1CC1 [Compound 3-121]
- herbicidal activity [1]: good herbicidal activity
- herbicidal activity [2]: good herbicidal activity

Structure (SMILES): Cc1nn(-c2cncnc2)c(-c2ccc(Cl)cn2)c1CC(=O)OCC1CC1 [Compound 3-135]
- herbicidal activity [1]: good herbicidal activity
- herbicidal activity [2]: good herbicidal activity

Structure (SMILES): Cc1nn(-c2cncnc2)c(-c2ccc(Br)cn2)c1CC(=O)OCC1CC1 [Compound 3-136]
- herbicidal activity [2]: good herbicidal activity

Structure (SMILES): CC#CCOC(=O)Cc1c(C)nn(-c2cncnc2)c1-c1ccc(Cl)cc1 [Compound 3-161]
- herbicidal activity [1]: good herbicidal activity
- herbicidal activity [2]: good herbicidal activity

Structure (SMILES): CC#CCOC(=O)Cc1c(C)nn(-c2cncnc2)c1-c1ccc(Br)cn1 [Compound 3-176]
- herbicidal activity [1]: good herbicidal activity
- herbicidal activity [2]: good herbicidal activity

Structure (SMILES): Cc1nn(-c2cncnc2)c(-c2ccc(Cl)cn2)c1CC(=O)OCC(F)F [Compound 3-353]
- herbicidal activity [1]: good herbicidal activity
- herbicidal activity [2]: good herbicidal activity
